Measured values reported in ChEMBL document CHEMBL2095176, “GSK Tuberculosis Screening Data”.
Values after ≈ are worked out from the molar mass of the structure shown.

Assays:
physchem [1] = settings: phosphate buffered saline, pH 7.4
physchem [2] = settings: buffer, pH 7.4
Description: GSK_TB: GSK in-house hydrophobicity assay at pH7.4 (logD)

physchem [3] = settings: octanol/water
Description: GSK_TB: GSK in-house hydrophobicity assay (logP)

[4] = test system: Mycobacterium tuberculosis H37Rv; experiment: microbe, parasite or virus in culture
Description: GSK_TB: Intracellular minimum inhibitory concentration (MIC) H37Rv assay

Structure (SMILES) | solubility kinetic (physchem [1]) | logD (physchem [2]) | logP (physchem [3]) | MIC90 [4]
Brc1cncc(-c2cc(NCCCn3ccnc3)nc(-c3ccccc3)n2)c1 | 15 µM (≈ 6.53 µg/mL) | 5.53 | 5.83 | 5.19 µM (≈ 2.26 µg/mL)
O=C(Cc1ccc(F)cc1)Nc1nc(-c2ccccn2)cs1 | 14 µM (≈ 4.39 µg/mL) | 4.32 | 4.33 | 9.3 µM (≈ 2.91 µg/mL)
CN1CCN(c2cc(-c3ccc(F)cc3)nc(-c3ccncc3)n2)CC1 | 44 µM (≈ 15.4 µg/mL) | 5.07 | 5.73 | 7.41 µM (≈ 2.59 µg/mL)
CCc1nc2ccccc2n1CC(O)COc1cc(C)ccc1Cl (stereo unspecified) | 1 µM (≈ 0.345 µg/mL) | 5.35 | 5.63 | 8.81 µM (≈ 3.04 µg/mL)
COc1ccc(-c2cncc(-c3cc(N4CCN(CCO)CC4)nc(-c4ccccc4)n3)c2)cc1 | 1 µM (≈ 0.468 µg/mL) | 5.91 | 6.34 | 1.45 µM (≈ 0.676 µg/mL)
CN1CCN(c2cc(-c3ccncc3)nc(-c3ccccc3)n2)CC1 | 379 µM (≈ 126 µg/mL) | 4.88 | 5.54 | 9.02 µM (≈ 2.99 µg/mL)
CCCc1ccc(S(=O)(=O)Nc2ccc(CN3CCN(CC4CC4)CC3)cc2)cc1.O=C(O)C(F)(F)F.O=C(O)C(F)(F)F | 318 µM | 4.69 | 5.54 | 7.76 µM
Cc1ccc2nc(C(F)(F)F)c(C(=O)NCc3cccc(OC(C)C)c3)n2c1 | 1 µM (≈ 0.391 µg/mL) | 6.19 | 6.43 | 2.1 µM (≈ 0.822 µg/mL)
COc1ccc(-c2cc(NC(=O)c3ccc(F)cc3Cl)ccc2OC)cc1 | 1 µM (≈ 0.386 µg/mL) | 6.28 | 6.48 | 8.13 µM (≈ 3.14 µg/mL)
O=C(NCc1cc(Cl)cc(Cl)c1)c1c(C(F)(F)F)nc2ccccn12 | 1 µM (≈ 0.388 µg/mL) | 6.09 | 6.48 | 3.1 µM (≈ 1.2 µg/mL)
Cc1ccc2nc(C(F)(F)F)c(C(=O)NCc3ccc(C)o3)n2c1 | 259 µM (≈ 87.4 µg/mL) | 4.97 | 5.18 | 3.43 µM (≈ 1.16 µg/mL)
Cc1nc2ccccn2c1C(=O)NCc1ccc2c(c1)OCO2 | 357 µM (≈ 110 µg/mL) | 3.02 | 3.02 | 2.9 µM (≈ 0.897 µg/mL)
Cl.O=C(c1ccco1)N(CCCn1ccnc1)c1nc2c(Cl)cccc2s1 | 21 µM | 5.25 | 5.63 | 8.41 µM
CCn1c(=O)c(=O)[nH]c2cc(C(=O)Nc3ccccc3Nc3ccc(OC)cc3)ccc21 | 47 µM (≈ 20.2 µg/mL) | 3.67 | 3.87 | 8.4 µM (≈ 3.62 µg/mL)
Fc1ccc2nc(Nc3nc(-c4ccccn4)cs3)sc2c1 | 28.5 µM (≈ 9.36 µg/mL) | 5.53 | 5.54 | 2.3 µM (≈ 0.755 µg/mL)
Cc1nnc(NCc2cccc(Cl)c2)c2ccccc12 | 127 µM (≈ 36 µg/mL) | 4.32 | 4.52 | 5.9 µM (≈ 1.67 µg/mL)
CCOc1ccc(OCc2ccc(C(=O)NNC(=O)c3ccc([N+](=O)[O-])o3)cc2)cc1 | 1 µM (≈ 0.425 µg/mL) | 4.32 | 4.88 | 2.5 µM (≈ 1.06 µg/mL)
COc1cc(CN2CCC3(C=Cc4ccccc43)CC2)cc2c1OCO2 | 121 µM (≈ 42.3 µg/mL) | 7.03 | 8.25 | 9.5 µM (≈ 3.32 µg/mL)
Cc1n[nH]c(C)c1S(=O)(=O)NCc1nc(NCCCc2ccccc2)c2ccccc2n1 | 240 µM (≈ 108 µg/mL) | 4.32 | 4.52 | 1.8 µM (≈ 0.811 µg/mL)
Nc1nc2cc(-c3cncc(Oc4ccc(F)cc4)c3)ccc2[nH]1.O=C(O)C(F)(F)F.O=C(O)C(F)(F)F | 100 µM | 3.11 | 3.12 | 0.347 µM

Structure (SMILES) | solubility kinetic (physchem [1]) | logD (physchem [2]) | logP (physchem [3]) | MIC90 [4]
CCC(Sc1nc2ccccc2o1)C(=O)Nc1nccs1 (stereo unspecified) | 105 µM (≈ 33.5 µg/mL) | 5.44 | 5.78 | 2.79 µM (≈ 0.89 µg/mL)
Cc1ccc2nc(C)c(C(=O)NCc3ccco3)n2c1 | 277 µM (≈ 74.6 µg/mL) | 3.02 | 3.02 | 1.3 µM (≈ 0.35 µg/mL)
c1ccc(-c2csc(Nc3nc4cc5c(cc4s3)OCO5)n2)nc1 | 1 µM (≈ 0.354 µg/mL) | 5.07 | 5.06 | 2.7 µM (≈ 0.957 µg/mL)
Cc1ccc2nc(C(F)(F)F)c(C(=O)NCc3cc(Cl)cc(Cl)c3)n2c1 | 1 µM (≈ 0.402 µg/mL) | 6.65 | 7.04 | 0.9 µM (≈ 0.362 µg/mL)
CC(Oc1ccccc1)C(=O)Nc1nc(-c2ccccn2)cs1 (stereo unspecified) | 174 µM (≈ 56.6 µg/mL) | 5.07 | 5.06 | 9.77 µM (≈ 3.18 µg/mL)
O=C(CCC1CCCCC1)Nc1cccc(-c2nnc(-c3ccco3)o2)c1 | 1 µM (≈ 0.365 µg/mL) | 6.84 | 7.18 | 6.1 µM (≈ 2.23 µg/mL)
CCOC(=O)CC[C@H](NC(=O)c1ccc(S(=O)(=O)Nc2ccc3nc(N)[nH]c(=O)c3c2)cc1)C(=O)OCC | 300 µM (≈ 164 µg/mL) | 2.46 | 2.45 | 1.5 µM (≈ 0.818 µg/mL)
Br.CC(C)(C)c1ccccc1OCCCON1C(=N)N=C(N)NC1(C)C | 363 µM | 4.04 | 6.14 | 2.3 µM
CC(C)OC(=O)COc1ccc(-c2cnc(N(C)CCc3ccncc3)nc2)cc1 | 182 µM (≈ 74 µg/mL) | 5.63 | 5.93 | 6.76 µM (≈ 2.75 µg/mL)
c1csc(Cc2nn3c(-c4n[nH]c5c4CCC5)nnc3s2)c1 | 196 µM (≈ 64.4 µg/mL) | 3.3 | 3.48 | 2.4 µM (≈ 0.788 µg/mL)
CCc1c(C)nc(-n2nc(C)cc2NC(=O)c2ccccc2SC)[nH]c1=O | 1 µM (≈ 0.383 µg/mL) | 5.63 | 6.48 | 1.15 µM (≈ 0.44 µg/mL)
CN1CCN(c2ccc(C(F)(F)F)cc2NC(=O)c2ccccn2)CC1 | 182 µM (≈ 66.3 µg/mL) | 6.19 | 6.84 | 1.91 µM (≈ 0.694 µg/mL)
c1cncc(NCc2ccc(-c3cc4ccncc4cc3OC3CCNCC3)s2)c1 | 167 µM (≈ 69.6 µg/mL) | 1.9 | 4.23 | 8.61 µM (≈ 3.59 µg/mL)
Cc1ccc2nc(C(F)(F)F)c(C(=O)NCc3ccc4c(c3)OCO4)n2c1 | 22 µM (≈ 8.3 µg/mL) | 4.79 | 4.98 | 1.1 µM (≈ 0.415 µg/mL)
O=C(NCc1ccccc1F)N1CCN(Cc2ccc(Br)s2)CC1 | 60 µM (≈ 24.7 µg/mL) | 5.72 | 5.93 | 6.6 µM (≈ 2.72 µg/mL)
COc1ccc(-c2nsc(SCC(=O)N3CCCC3)n2)cc1 | 10 µM (≈ 3.35 µg/mL) | 4.97 | 5.27 | 1.6 µM (≈ 0.538 µg/mL)
Cc1ccc(CNC(=O)c2cnn3c2NC(c2ccc(C)cc2)CC3C(F)F)cc1 (stereo unspecified) | 1 µM (≈ 0.41 µg/mL) | 6.84 | 7.09 | 1.23 µM (≈ 0.505 µg/mL)
O=C(C=Cc1ccco1)N1CCN(Cc2ccc3c(c2)OCO3)CC1 | 186 µM (≈ 63.3 µg/mL) | 4.51 | 4.72 | 4.6 µM (≈ 1.57 µg/mL)
O=C(NCc1ccc(Oc2ccccc2)cc1)c1c(C(F)(F)F)nc2ccccn12 | 1 µM (≈ 0.411 µg/mL) | 6.28 | 6.58 | 0.2 µM (≈ 0.0823 µg/mL)
NC(=O)c1cc(-c2ccsc2)ccc1OCCOc1ccccc1 | 1 µM (≈ 0.339 µg/mL) | 5.44 | 5.78 | 3.5 µM (≈ 1.19 µg/mL)

Structure (SMILES) | solubility kinetic (physchem [1]) | logD (physchem [2]) | logP (physchem [3]) | MIC90 [4]
CC(C)(C)C(=O)CC1(O)Oc2ccccc2N=C1C=C(O)C(C)(C)C (stereo unspecified) | 75 µM (≈ 25.9 µg/mL) | 7.49 | 7.84 | 4.03 µM (≈ 1.39 µg/mL)
COc1ccc(Nc2ccccc2NC(=O)c2ccc(O)nc2)cc1 | 362 µM (≈ 121 µg/mL) | 2.92 | 2.97 | 7.08 µM (≈ 2.37 µg/mL)
Br.CC1(C)NC(N)=NC(=N)N1OCCCOc1ccc(Cl)cc1Cl | 337 µM | 3.39 | 4.83 | 3.55 µM
Br.CCc1ccccc1OCCCON1C(=N)N=C(N)NC1(C)C | 225 µM | 3.3 | 4.83 | 3.2 µM
Cc1cccc(Cn2ccc(NC(=O)c3ccc4c(c3)OCO4)n2)c1 | 80 µM (≈ 26.8 µg/mL) | 5.07 | 5.27 | 3.7 µM (≈ 1.24 µg/mL)
Cc1ccc2nc(C)c(-c3ccn(Cc4ccccc4)n3)n2c1 | 120 µM (≈ 36.3 µg/mL) | 5.16 | 5.54 | 5 µM (≈ 1.51 µg/mL)
Clc1ccc(CCNc2cc(-c3ccccc3)nc3ncnn23)cc1 | 1 µM (≈ 0.35 µg/mL) | 5.53 | 5.73 | 1.5 µM (≈ 0.525 µg/mL)
Cc1cnc(N2CCN[C@@H](Cc3ccccc3)C2)nc1Oc1ccc(-n2ccnc2)cc1.O=C(O)C(F)(F)F | 228 µM | 4.04 | 5.03 | 9.23 µM
Cc1ccc2nc(Cl)c(CNCc3cccs3)cc2c1 | 44 µM (≈ 13.3 µg/mL) | 6.84 | 7.23 | 7.59 µM (≈ 2.3 µg/mL)
COc1cc(Cc2cnc(N)nc2N)c2cnccc2c1N(C)C | 304 µM (≈ 98.6 µg/mL) | 2.55 | 2.61 | 2.99 µM (≈ 0.968 µg/mL)
Cn1ccnc1CNCCS(=O)(=O)c1cccc(Nc2ccc(-c3cccc(F)c3)cn2)c1 | 64 µM (≈ 29.8 µg/mL) | 4.41 | 4.62 | 4.68 µM (≈ 2.18 µg/mL)
CCc1ccc(Nc2nnc(SCc3cc(C)on3)s2)cc1 | 1 µM (≈ 0.332 µg/mL) | 5.72 | 5.98 | 2.8 µM (≈ 0.931 µg/mL)
C[C@@H](NCCc1nc(-c2cn(C)c3ccccc23)no1)C1CCCCC1.Cl | 202 µM | 6.56 | 8.75 | 1.15 µM
Cc1cc(OCC(=O)NCc2ccccc2)c2cc(Br)ccc2n1 | 15 µM (≈ 5.78 µg/mL) | 4.97 | 5.13 | 2.3 µM (≈ 0.886 µg/mL)
Cc1ccc2nc(C(F)(F)F)c(C(=O)NCc3cccs3)n2c1 | 17 µM (≈ 5.77 µg/mL) | 4.79 | 4.98 | 0.9 µM (≈ 0.305 µg/mL)
N#Cc1nc(-c2ccccc2F)oc1NCCc1ccccc1 | 3 µM (≈ 0.922 µg/mL) | 6.37 | 6.63 | 2.79 µM (≈ 0.856 µg/mL)
COc1ccc2nc(C)cc(OCC(=O)NCc3ccccc3)c2c1 | 96 µM (≈ 32.3 µg/mL) | 3.86 | 3.92 | 1.1 µM (≈ 0.37 µg/mL)
O=C(NC(Cc1ccccc1)C(=O)Nc1ccccc1N1CCOCC1)c1cccs1 (stereo unspecified) | 64 µM (≈ 27.9 µg/mL) | 5.53 | 5.78 | 7.6 µM (≈ 3.31 µg/mL)
O=C(C1CCN(c2nnc(-n3cccc3)s2)CC1)N1CCC(Cc2ccccc2)CC1 | 1 µM (≈ 0.436 µg/mL) | 6.37 | 6.78 | 4.2 µM (≈ 1.83 µg/mL)
